Laboratory results reported in US20230234942A1, “COMPOUNDS FOR TREATING HUNTINGTON'S DISEASE” (PTC Therapeutics, Inc., priority 2020, published 2023).

Tested on: Endogenous Huntingtin Protein
Test: Endogenous Huntingtin Protein Assay (ELISA-based MSD electrochemiluminescence)
Assay type: cell-based
Settings: Table 2; MSD plates coated with MW1 (expanded polyglutamine) or MAB2166 capture antibody; "inactive" = result above the detection limit of the assay
How it was run: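 MSD electrochemiluminescence sandwich ELISA: capture with MW1 (expanded polyQ) or MAB2166 at 1 µg/mL, samples incubated overnight at 4 °C. Detection by rabbit mAb #56565 then SULFO-TAG anti-rabbit antibody, each 0.25 µg/mL for 1 h at room temperature, read in buffer T on SI 6000 imager.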

Molecule	IC50
CC(C)(O)[C@H]1CN(c2ncc(-c3ccc(-c4c[nH]nc4F)cc3O)nn2)CCN1 [Cpd 25, 5-(3-fluoro-1H-pyrazol-4-yl)-2-{3-[(3R)-3-(2-hydroxypropan-2-yl)piperazin-1-yl]-1,2,4-triazin-6-yl]phenol]	0.0246 µM
CC[C@@H]1CN(c2ncc(-c3ccc(-c4cn[nH]c4)cc3O)nn2)CCN1 [Cpd 48, 2-{3-[(3R)-3-ethylpiperazin-1-yl]-1,2,4-triazin-6-yl}-5-(1H-pyrazol-4-yl)phenol]	0.167 µM
CCN1CCN(c2ncc(-c3ccc(-c4cc(F)c5nc(C)cn5c4)cc3O)nn2)C[C@H]1C [Cpd 89, 2-{3-[(3R)-4-ethyl-3-methylpiperazin-1-yl]-1,2,4-triazin-6-yl}-5-(8-fluoro-2-methylimidazo[1,2-a]pyridin-6-yl)phenol]	0.0067 µM
C[C@@H]1CN[C@@H](C)CN1c1ncc(-c2ccc(-c3cn[nH]c3)cc2O)nn1 (single isomer, unassigned) [Cpd 190, 2-{3-[(2R,5S)-2,5-dimethylpiperazin-1-yl]-1,2,4-triazin-6-yl}-5-(1H-pyrazol-4-yl)phenol or 2-{3-[(2S,5R)-2,5-dimethylpiperazin-1-yl]-1,2,4-triazin-6-yl}-5-(1H-pyrazol-4-yl)phenol]	0.166 µM
Cc1nc2cc(-c3ccc(-c4cnc(N5CCN[C@@H](C(C)C)C5)nn4)c(O)c3)ccn2n1 [Cpd 147, 5-(2-methyl[1,2,4]triazolo[1,5-a]pyridin-7-yl)-2-{3-[(3S)-3-(propan-2-yl)piperazin-1-yl]-1,2,4-triazin-6-yl}phenol]	0.0388 µM
CC(C)[C@@H]1CN(c2ncc(-c3ccc(-c4cn[nH]c4)cc3O)nn2)C[C@H](C)N1 [Cpd 216, 2-{3-[(3S,5R)-3-methyl-5-(propan-2-yl)piperazin-1-yl]-1,2,4-triazin-6-yl]-5-(1H-pyrazol-4-yl)phenol]	0.218 µM
Oc1cc(-c2ccncc2)ccc1-c1cnc(N2CCN[C@@H](C3CC3)C2)nn1 [Cpd 177, 2-{3-[(3S)-3-cyclopropylpiperazin-1-yl]-1,2,4-triazin-6-yl}-5-(pyridin-4-yl)phenol]	0.029 µM
CC(C)C1CN(c2ncc(-c3ccc(-c4cn[nH]c4)cc3O)nn2)CCN1 (stereo not shown) [Cpd 22, 2-{3-[3-(propan-2-yl)piperazin-1-yl]-1,2,4-triazin-6-yl}-5-(1H-pyrazol-4-yl)phenol]	0.0223 µM
Cc1cn2cc(-c3ccc(-c4cnc(N5C[C@@H](C)N[C@@H](C)C5)nn4)c(O)c3)nc(C)c2n1 [Cpd 103, 5-(2,8-dimethylimidazo[1,2-a]pyrazin-6-yl)-2-{3-[(3R,5S)-3,5-dimethylpiperazin-1-yl]-1,2,4-triazin-6-yl}phenol]	0.0134 µM
Cn1nc2cc(-c3cnc(-c4cnc(N5CCN[C@@H](C6CC6)C5)nn4)c(O)c3)cnc2n1 [Cpd 180, 2-{3-[(3S)-3-cyclopropylpiperazin-1-yl]-1,2,4-triazin-6-yl}-5-(2-methyl-2H-[1,2,3]triazolo[4,5-b]pyridin-6-yl)pyridin-3-ol]	0.0276 µM
COc1cc(-c2ccc(-c3cnc(N4CCN[C@@H](C(C)C)C4)nn3)c(O)c2)cc(C)n1 [Cpd 271, 5-(2-methoxy-6-methylpyridin-4-yl)-2-{3-[(3S)-3-(propan-2-yl)piperazin-1-yl]-1,2,4-triazin-6-yl}phenol]	0.943 µM
Oc1cc(-c2cn[nH]c2)ccc1-c1cnc(N2CCN[C@@H](C3CC3)C2)nn1 [Cpd 137, 2-{3-[(3S)-3-cyclopropylpiperazin-1-yl]-1,2,4-triazin-6-yl}-5-(1H-pyrazol-4-yl)phenol]	0.0075 µM
Oc1cc(-c2cn[nH]c2)ccc1-c1cnc(N2CCNC(C3CC3(F)F)C2)nn1 (stereo not shown) [Cpd 36, 2-{3-[3-(2,2-dilluorocyclopropyl)piperazin-1-yl]-1,2,4-triazin-6-yl}-5-(1H-pyrazol-4-yl)phenol]	0.0477 µM
Cc1nc2n(n1)CCN(c1ccc(-c3cnc(N4CCN[C@@H](C(C)C)C4)nn3)c(O)c1)C2 [Cpd 274, 5-(2-methyl-5,6-dihydro[1,2,4]triazolo[1,5-a]pyrazin-7(8H)-yl)-2-{3-[(3S)-3-(propan-2-yl)piperazin-1-yl]-1,2,4-triazin-6-yl}phenol]	0.291 µM
CC[C@H]1CN(c2ncc(-c3ccc(-c4cn[nH]c4)cc3O)nn2)CCN1 [Cpd 23, 2-{3-[(3S)-3-ethylpiperazin-1-yl]-1,2,4-triazin-6-yl}-5-(1H-pyrazol-4-yl)phenol]	0.0227 µM
Oc1cc(-c2ncns2)ccc1-c1cnc(N2CCN[C@@H](C3CC3)C2)nn1 [Cpd 170, 2-{3-[(3S)-3-cyclopropylpiperazin-1-yl]-1,2,4-triazin-6-yl}-5-(1,2,4-thiadiazol-5-yl)phenol]	0.0215 µM
Cc1cc(-c2ccc(-c3cnc(N4CCN[C@@H](C(C)C)C4)nn3)c(O)c2)cc2cn(C)nc12 [Cpd 140, 5-(2,7-dimethyl-2H-indazol-5-yl)-2-{3-[(3S)-3-(propan-2-yl)piperazin-1-yl]-1,2,4-triazin-6-yl}phenol]	0.0058 µM
2-{3-[(3S,5R)-3-tert-butyl-5-methylpiperazin-1-yl]-1,2,4-triazin-6-yl}-5-(1,2,4-thiadiazol-3-yl)phenol [Cpd 254]	0.556 µM
Oc1cc(-c2cn[nH]c2)ccc1-c1cnc(N2CCNC(c3ccncc3)C2)nn1 (stereo not shown) [Cpd 62, 5-(1H-pyrazol-4-yl)-2-{3-[3-(pyridin-4-yl)piperazin-1-yl]-1,2,4-triazin-6-yl}phenol]	2.39 µM
Oc1cc(-n2nccn2)ccc1-c1cnc(N2CCN3CCC[C@H]3C2)nn1 [Cpd 153, 2-{3-[(8aS)-hexahydropyrrolo[1,2-a]pyrazin-2(1H)-yl]-1,2,4-triazin-6-yl}-5-(2H-1,2,3-triazol-2-yl)phenol]	0.438 µM
CC[C@H]1CN(c2ncc(-c3ccc(-c4ncns4)cc3O)nn2)C[C@@H](C)N1 (single isomer, unassigned) [Cpd 267, 2-{3-[(3S,5R)-3-ethyl-5-methylpiperazin-1-yl]-1,2,4-triazin-6-yl}-5-(1,2,4-thiadiazol-5-yl)phenol or 2-{3-[(3R,5S)-3-ethyl-5-methylpiperazin-1-yl]-1,2,4-triazin-6-yl}-5-(1,2,4-thiadiazol-5-yl)phenol]	0.145 µM
[2H]C([2H])([2H])n1cc(-c2ccc(-c3cnc(N4CC5CCC(C4)N5C)nn3)c(O)c2)cn1 [Cpd 58, 2-[3-(8-methyl-3,8-diazabicyclo[3.2.1]octan-3-yl)-1,2,4-triazin-6-yl]-5-[l-(^2H3)methyl-1H-pyrazol-4-yl]phenol]	0.678 µM
CC(C)[C@@H]1CN(c2ncc(-c3ccc(-c4cn[nH]c4)cc3O)nn2)CCN1 [Cpd 40, 2-{3-[(3R)-3-(propan-2-yl)piperazin-1-yl]-1,2,4-triazin-6-yl}-5-(1H-pyrazol-4-yl)phenol]	0.0682 µM
Cc1nc(-c2ccc(-c3cnc(N4CCN[C@@H](C5CC5)C4)nn3)c(O)c2)ns1 [Cpd 245, 2-{3-[(3S)-3-cyclopropylpiperazin-1-yl]-1,2,4-triazin-6-yl}-5-(5-methyl-1,2,4-thiadiazol-3-yl)phenol]	0.0115 µM
Cc1nc2c(C)cc(-c3ccc(-c4cnc(N5C[C@@H](C)N[C@@H](C)C5)nn4)c(O)c3)nn2n1 [Cpd 83, 2-{3-[(3R,5S)-3,5-dimethylpiperazin-1-yl]-1,2,4-triazin-6-yl}-5-(2,8-dimethyl[1,2,4]triazolo[1,5-b]pyridazin-6-yl)phenol]	0.0056 µM
